Where two headings read alike, the source gives them in different places. Non-standard residues stand in square brackets, D forms with d. Primed or numbered codes have the meaning given here. No end group written: not given here. Ida = iminodiacetic acid linker, its two carboxyls bind the Lys side-chain amines of two peptides, giving a homodimer; Ida(3) = iminodiacetic acid linker, Lys side-chain amines bound to its two carboxyl groups; Ida(4) = iminodiacetic acid linker (dimerization linker bound to lysine side chain); Aib = CC(C)(N)C(=O)O
Test system: HUVECs
Assay type: cell-based
Summary of the method: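 HUVECs seeded at 5,000 cells/well in EBM with 2% FCS, adhered ≥12 hours, then stimulated with bFGF 10 ng/ml or VEGF 5 ng/ml plus varying peptide concentrations. After 48 hours at 37 ° C, 5% CO2, proliferation inhibition read by BrdU incorporation.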

[1] = HUVEC proliferation, bFGF at 10 ng/ml or VEGF at 5 ng/ml, 48 hours, BrdU incorporation, read-out: IC50 on HUVECs

Row | Compound | IC50 [1] | IC50 (48 h)
1 | 413 (Ac-WRRRRQAVAIYFK; not fully specified (residue 13, C-terminus); also: homodimer via Ida linker on Lys side chains, linker at 13 via Ida, other end not in the chain) [compound 413] | < 10 µM | –
2 | CC[C@H](C)[C@H](NC(=O)[C@H](CCCNC(=N)N)NC(=O)[C@@H](NC(=O)[C@H](Cc1c[nH]cn1)NC(=O)[C@H](CCC(N)=O)NC(=O)[C@H](CCCNC(=N)N)NC(=O)[C@H](CCCNC(=N)N)NC(=O)[C@H](Cc1c[nH]cn1)NC(=O)[C@H](Cc1c[nH]cn1)NC(=O)[C@H](CCCNC(=N)N)NC(C)=O)C(C)C)C(=O)N[C@@H](Cc1ccc(O)cc1)C(=O)N[C@@H](Cc1ccccc1)C(=O)N[C@@H](CCCCNC(=O)CN(CC(=O)NCCCC[C@H](NC(=O)[C@H](Cc1ccccc1)NC(=O)[C@H](Cc1ccc(O)cc1)NC(=O)[C@@H](NC(=O)[C@H](CCCNC(=N)N)NC(=O)[C@@H](NC(=O)[C@H](Cc1c[nH]cn1)NC(=O)[C@H](CCC(N)=O)NC(=O)[C@H](CCCNC(=N)N)NC(=O)[C@H](CCCNC(=N)N)NC(=O)[C@H](Cc1c[nH]cn1)NC(=O)[C@H](Cc1c[nH]cn1)NC(=O)[C@H](CCCNC(=N)N)NC(C)=O)C(C)C)[C@@H](C)CC)C(N)=O)C(=O)CCNC(=O)OC(C)(C)C)C(N)=O [Peptide 333] | – | < 10 µM
3 | 417 (Ac-RRRRRQAVAIKFV; not fully specified (residue 11); also: homodimer via Ida linker on Lys side chains, linker at 11 via Ida, other end not in the chain) [compound 417] | < 10 µM | –
4 | 242 (Ac-RRHRRQHVRIIF; also: dimer via C-terminal Phe to Lys linker) [compound 242] | < 10 µM | –
5 | 225 (Ac-ARRRRQRVAINFK; also: homodimer via Ida linker on side chain of Lys13) [compound 225] | < 10 µM | –
6 | 434 (Ac-RRRRFQAVAIYFK(Ida(4)); not fully specified (C-terminus); also: homodimer via Ida linker at K13) [compound 434] | < 10 µM | –
7 | 423 (Ac-ARRRRQRVAIKFV; not fully specified (residue 11); also: homodimer of residues 1-13 via Ida linker on K11 side chain) [compound 423] | < 10 µM | –
8 | 382 (Ac-ARRRRQRVAIVFK-NH2; not fully specified (residue 13); also: homodimer via Ida linker on Lys13 side chain, Ida amine Boc) [compound 382] | < 10 µM | –
9 | 244 (Ac-RRRHRQHVRIIF; also: homodimer: C-termini of two chains bound to the two amines of a Lys linker) [compound 244] | < 10 µM | –
10 | 230 (XRHRRQRVRIIF; Xaa = Acylated Histidine; Dimeric peptide wherein the C terminus of Phe in position 12 of one peptide chain is covalently bound to one of the amino groups of a Lysine linker and Phe of the remaining peptide chain is covalently bound to the other amino group of the Lysine linker.) [compound 230] | < 10 µM | –
11 | 298 (Ac-ARRRRQRVA[Aib]FK-NH2; not fully specified (residue 12); also: homodimer via Ida linker on Lys12 side chain) [compound 298] | > 30 µM | –
12 | 480 (Ac-PRRRWQAVAIYFK(Ida(3)); not fully specified (C-terminus); also: homodimer via Ida linker on Lys13 side chain) [compound 480] | 10 to 30 µM | –
13 | KTKRKRKKQRVKIIFVANM [compound 107] | < 10 µM | –
14 | 410 (Ac-SRRRRQAVAIYFK; not fully specified (residue 13, C-terminus); also: homodimer via Ida linker on Lys side chains, linker at 13 via Ida, other end not in the chain) [compound 410] | < 10 µM | –
15 | 363 (Ac-ARRRRQRVAWYFK-NH2; not fully specified (residue 13); also: homodimer of residues 1-13 via Ida linker on K13 side chain) [compound 363] | < 10 µM | –
16 | 203 (Ac-RRARAQRVRIIF; also: dimer: C-terminal Phe bound to an amino group of a Lys linker, 2 chains per Lys) [compound 203] | < 10 µM | –
17 | 510 (Ac-ARRRRERVAIYFK; not fully specified (C-terminus); also: homodimer via Ida linker at Lys13 side chain) [compound 510] | < 10 µM | –
18 | 389 (Ac-ARRRRQAVGIYFK-NH2; not fully specified (residue 13); also: homodimer via Ida linker on Lys13 side chain, Ida amine Boc) [compound 389] | < 10 µM | –
19 | 268 (Ac-ARRRRQRVAIPFK-NH2; not fully specified (residue 13); also: homodimer: side chain of Lys13 bound to an Ida linker) [compound 268] | > 30 µM | –
20 | 317 (Ac-ARRRRQHVAIYFK(Ida)-NH2; also: homodimer via Ida linker on Lys13 side chain) [compound 317] | < 10 µM | –
21 | 353 (Ac-ARRRRQRVAIYYK-NH2; not fully specified (residue 13); also: homodimer of residues 1-13 via Ida linker on K13 side chain) [compound 353] | > 30 µM | –
22 | 348 (Ac-ARRRRQRVAIYHK-NH2; not fully specified (residue 13); also: homodimer of residues 1-13 via Ida linker on Lys13 side chain) [compound 348] | > 30 µM | –

Row | Compound | IC50 [1] | IC50 (48 h)
23 | KTKRKRKKQRVKIAYEEIFVQN [compound 25] | < 10 µM | –
24 | KTKRKRKKQRVKIAYEEIF [compound 16] | 10 to 30 µM | –
25 | 209 (Ac-RRRRAQAVRIIF; also: dimer: Phe C-termini joined via Lys linker) [compound 209] | < 10 µM | –
26 | 196 (Ac-ARRRRQRVAIIF; also: dimer: C-terminal Phe bound to an amino group of a Lys linker, 2 chains per Lys) [compound 196] | < 10 µM | –
27 | 302 (Ac-RRRRRQAVRIAIAFK(Ida)-NH2; also: homodimer via Ida linker on Lys15 side chain) [compound 302] | < 10 µM | –
28 | 433 (Ac-RRRREQAVAIYFK(Ida(4)); not fully specified (C-terminus); also: homodimer via Ida linker at K13) [compound 433] | 10 to 30 µM | –
29 | 171 (Ac-RRRRRQRVRIIFK; also: homodimer via GP3-PEG 20 kDa linker on Lys13 side chains) [compound 171] | < 10 µM | –
30 | KTKRKRKAARVKIAYEEIFVQNM [compound 53] | > 30 µM | –
31 | KTKRKRKKQRVKIIFVQNM [compound 33] | < 10 µM | –
32 | 513 (Ac-ARRRRIRVAIYFK; not fully specified (C-terminus); also: homodimer via Ida linker at Lys13 side chain) [compound 513] | 10 to 30 µM | –
33 | 202 (Ac-RRAARQRVRIIF; also: dimer: C-terminal Phe bound to an amino group of a Lys linker, 2 chains per Lys) [compound 202] | < 10 µM | –
34 | 438 (Ac-RRRRNQAVAIYFK(Ida(4)); not fully specified (C-terminus); also: homodimer via Ida linker at K13) [compound 438] | < 10 µM | –
35 | 420 (Ac-ARRRRQSVAIYFK; not fully specified (residue 13, C-terminus); also: homodimer of residues 1-13 via Ida linker on K13 side chain) [compound 420] | < 10 µM | –
36 | 402 (Ac-FRRRRQAVAIYFK(Ida(3))-NH2; also: homodimer via Ida linker on Lys13 side chain, Ida amine Boc) [compound 402] | < 10 µM | –
37 | 451 (Ac-NRRRRQAVAIVFK-NH2; also: homodimer via Ida linker at K13) [compound 451] | > 30 µM | –
38 | CC[C@H](C)[C@H](NC(=O)[C@H](CCCNC(=N)N)NC(=O)[C@@H](NC(=O)[C@H](CCCNC(=N)N)NC(=O)[C@H](CCC(N)=O)NC(=O)[C@H](CCCNC(=N)N)NC(=O)[C@H](CCCNC(=N)N)NC(=O)[C@H](CCCNC(=N)N)NC(=O)[C@H](CCCNC(=N)N)NC(=O)[C@H](CCCNC(=N)N)NC(C)=O)C(C)C)C(=O)N[C@@H](Cc1ccc(O)cc1)C(=O)N[C@@H](Cc1ccccc1)C(=O)N[C@@H](CCCCNC(=O)CN(CC(=O)NCCCC[C@H](NC(=O)[C@H](Cc1ccccc1)NC(=O)[C@H](Cc1ccc(O)cc1)NC(=O)[C@@H](NC(=O)[C@H](CCCNC(=N)N)NC(=O)[C@@H](NC(=O)[C@H](CCCNC(=N)N)NC(=O)[C@H](CCC(N)=O)NC(=O)[C@H](CCCNC(=N)N)NC(=O)[C@H](CCCNC(=N)N)NC(=O)[C@H](CCCNC(=N)N)NC(=O)[C@H](CCCNC(=N)N)NC(=O)[C@H](CCCNC(=N)N)NC(C)=O)C(C)C)[C@@H](C)CC)C(N)=O)C(=O)CCNC(=O)OC(C)(C)C)C(N)=O [Peptide 279] | – | < 10 µM
39 | RKRKKQRVKIIF [compound 82] | > 30 µM | –
40 | KTKRKRKKQRVAAAYEEIFVQNM [compound 50] | > 30 µM | –
41 | 299 (Ac-RRRRRQAVRIGIGFK-NH2; also: homodimer: Lys15 side chain bound to Ida linker) [compound 299] | < 10 µM | –
42 | 444 (Ac-RRRRYQAVAIYFK(Ida(4)); not fully specified (C-terminus); also: homodimer via Ida linker at K13) [compound 444] | < 10 µM | –
43 | 168 (Ac-RRRRRQRVRIIFK; also: homodimer via GP3 linker on Lys13 side chains) [compound 168] | < 10 µM | –

— patent US20070203066A1, “Compositions and methods for inhibiting cellular proliferation” (priority 2005, published 2007)
